Laboratory results taken from the supplement of paper PMC10307832.

How the values were obtained:
Experiment in all cases: relative viability (nuclei count vs DMSO), 5 days (fraction); higher = more cells survive
[1] = compound: CC(C)C[C@H](NC(=O)[C@H](CCc1ccccc1)NC(=O)CN1CCOCC1)C(=O)N[C@@H](Cc1ccccc1)C(=O)N[C@@H](CC(C)C)C(=O)[C@@]1(C)CO1 [Carfilzomib] + CS(=O)(=O)CCNCc1ccc(-c2ccc3ncnc(Nc4ccc(OCc5cccc(F)c5)c(Cl)c4)c3c2)o1 [Lapatinib] (partner 2 µM)
Outline: (§1)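 Nuclei were stained with Hoechst during a one-step fixation (final 0.05% Triton X-100, 1% formaldehyde, 1 ug/ml Hoechst) carried out 5 days after dosing, then counted on 4× images. The cells, lung cancer lines in 1536-well plates, had been dosed by pin tool the day after seeding with one drug alone or a fixed anchor-drug dose plus five library-drug doses (not always all listed) in √10 steps. Relative viability is the nuclei count in treated wells divided by that in vehicle wells, and each value is the median of duplicate plates.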

[2] = compound: C[C@@H](Oc1cc(-c2cnn(C3CCNCC3)c2)cnc1N)c1c(Cl)ccc(F)c1Cl [Crizotinib] + COc1cccc2cc(-c3nc([C@H]4CC[C@H](C(=O)O)CC4)n4ncnc(N)c34)[nH]c12 [OSI-027] (partner 0.5 µM)
Outline: as §1

[3] = compound: C[C@@H](Oc1cc(-c2cnn(C3CCNCC3)c2)cnc1N)c1c(Cl)ccc(F)c1Cl [Crizotinib] + CS(=O)(=O)CCNCc1ccc(-c2ccc3ncnc(Nc4ccc(OCc5cccc(F)c5)c(Cl)c4)c3c2)o1 [Lapatinib] (partner 2 µM)
Outline: as §1

[4] = compound: O=C(c1cc(Cc2n[nH]c(=O)c3ccccc23)ccc1F)N1CCN(C(=O)C2CC2)CC1 [Olaparib] + O=C(CCCCCCC(=O)Nc1ccccc1)NO [Vorinostat] (partner 1 µM)
Outline: as §1

Cell Line | relative viability ([1]; first compound 0.001 µM) | relative viability ([1]; first compound 0.003162 µM) | relative viability ([1]; first compound 0.01 µM) | relative viability ([1]; first compound 0.03162 µM) | relative viability ([1]; first compound 0.1 µM) | relative viability ([2]; first compound 0.01 µM) | relative viability ([2]; first compound 0.03162 µM) | relative viability ([2]; first compound 0.1 µM) | relative viability ([2]; first compound 1 µM) | relative viability ([3]; first compound 0.01 µM) | relative viability ([3]; first compound 0.03162 µM) | relative viability ([3]; first compound 0.1 µM) | relative viability ([3]; first compound 1 µM) | relative viability ([4]; first compound 0.08 µM) | relative viability ([4]; first compound 0.253 µM) | relative viability ([4]; first compound 2.53 µM) | relative viability ([4]; first compound 8 µM) | relative viability ([2]; first compound 0.3162 µM) | relative viability ([3]; first compound 0.3162 µM)
HCC-366 | 0.941 | 1.02 | 0.963 | 0.305 | 0.0207 | 0.885 | 0.931 | 0.889 | 0.901 | 1 | 1.06 | 1.05 | 1.11 | 0.352 | 0.273 | 0.191 | 0.101 |  | 
HCC-827 | 0.175 | 0.164 | 0.166 | 0.258 | 0.154 | 0.704 | 0.738 | 0.793 | 0.467 | 0.153 | 0.211 | 0.178 | 0.18 | 0.818 | 0.723 | 0.893 | 0.766 | 0.461 | 0.175
HOP-62 | 1.16 | 1.21 | 1.06 | 0.308 | 0.0688 | 0.816 | 0.84 | 0.822 |  | 0.796 | 1.15 | 1.01 | 1 | 0.757 | 0.575 | 0.675 | 0.379 | 0.765 | 0.84
IA-LM | 0.846 | 0.667 | 0.434 | 0.0463 | 0.081 |  |  |  |  | 0.861 | 0.954 | 0.738 | 0.641 | 1.15 | 0.921 | 0.9 | 0.817 |  | 0.822
LC-2-ad | 0.861 | 1.14 | 0.984 | 0.153 | 0.12 | 0.761 | 0.974 | 0.96 | 0.705 | 0.866 | 0.981 | 1.03 | 0.54 | 0.749 | 0.604 | 0.66 | 0.495 | 0.612 | 
LCLC-97TM1 | 0.73 | 1.58 | 0.957 | 0.282 | 0.142 | 0.506 | 0.457 | 0.462 | 0.354 | 1.08 | 0.927 | 1.04 | 1.12 | 1.08 | 0.63 | 0.615 | 0.599 | 0.486 | 
LCLC-103H |  |  |  |  |  | 0.483 | 0.485 | 0.361 | 0.428 |  |  |  |  | 0.936 | 0.762 | 0.801 | 0.678 | 0.495 | 
LK-2 | 0.673 | 1.19 | 0.72 | 0.226 | 0.217 | 0.196 | 0.186 | 0.166 | 0.183 | 0.953 | 0.852 | 0.819 |  | 0.391 | 0.341 | 0.345 | 0.268 | 0.189 | 0.867
LOU-NH91 | 0.767 | 0.783 | 0.607 | 0.309 | 0.288 | 0.713 | 0.724 | 0.798 | 0.706 | 0.738 | 0.731 | 0.677 | 0.712 | 1.17 | 0.904 | 0.939 | 0.983 | 0.712 | 0.57
LU99A | 1 | 1.03 | 0.972 | 0.521 | 0.2 | 0.304 | 0.319 | 0.294 | 0.275 | 0.824 | 1.02 | 0.976 | 0.928 | 0.463 | 0.397 | 0.353 | 0.23 | 0.259 | 1.03
LXF-289 | 0.921 | 0.942 | 0.917 | 0.0958 | 0.101 | 0.769 | 0.809 | 0.758 | 0.877 | 0.902 | 0.886 | 0.925 | 0.872 | 0.81 | 0.731 | 0.807 | 0.722 | 0.489 | 0.779
NCI-H23 | 1.01 | 1.09 | 0.723 | 0.171 | 0.142 | 0.631 | 0.58 | 0.66 | 0.541 | 1.12 | 1.03 | 1.09 | 1.18 | 0.957 | 0.542 | 0.434 | 0.256 |  | 
NCI-H322M | 0.477 | 0.641 | 0.611 | 0.651 | 0.4 | 0.519 | 0.521 | 0.478 | 0.502 | 0.478 | 0.642 | 0.616 | 0.701 | 1.01 | 0.854 | 0.942 | 0.831 | 0.535 | 0.584
NCI-H441 |  |  |  |  |  | 0.569 | 0.553 | 0.601 | 0.603 |  |  |  |  | 0.808 | 0.696 | 0.673 | 0.607 |  | 
NCI-H522 |  |  |  |  |  | 0.672 | 0.718 | 0.702 | 0.701 |  |  |  |  | 1.04 | 0.812 | 0.797 | 0.758 | 0.739 | 
NCI-H1299 | 0.98 | 1.01 | 0.982 | 0.681 | 0.147 |  |  |  |  | 0.966 | 0.942 | 0.896 | 0.955 |  |  |  |  |  | 0.996
NCI-H1563 | 0.926 | 1.1 | 0.927 | 0.771 | 0.506 | 0.705 | 0.766 | 0.753 | 0.766 | 0.88 | 0.962 | 0.936 | 0.789 |  |  |  |  | 0.727 | 0.753
NCI-H1623 |  |  |  |  |  | 0.439 | 0.435 | 0.454 | 0.4 |  |  |  |  |  |  |  |  | 0.378 | 
NCI-H1648 |  |  |  |  |  | 0.274 | 0.265 |  | 0.257 |  |  |  |  | 0.392 | 0.477 |  | 0.37 | 0.224 | 
NCI-H1703 | 1.02 | 1.19 | 0.207 | 0.149 | 0.173 |  |  |  |  | 1.23 | 1.18 | 1.07 | 1.02 |  |  |  |  |  | 1.17
NCI-H1792 | 0.794 | 0.896 | 0.939 | 0.985 | 0.697 | 0.72 | 0.748 | 0.656 | 0.722 | 0.827 | 0.918 | 0.958 | 0.842 |  |  |  |  |  | 0.78
NCI-H2342 |  |  |  |  |  | 0.652 | 0.613 | 0.623 | 0.547 |  |  |  |  | 0.771 | 0.699 | 0.66 | 0.653 | 0.509 | 
SW 900 |  |  |  |  |  | 0.499 | 0.507 | 0.581 | 0.568 |  |  |  |  | 0.462 | 0.446 | 0.443 | 0.515 | 0.509 | 
